These are literature values, as cited in patent US10526439B2, “High dielectric breakdown strength resins” (priority 2017, dated 2020).

The conditions of the series: monomer property, Table IA; species and route not given.

As to `C=Cc1ccc(C(C)(C)C)cc1` [Monomer 1, 4-tert butyl styrene], the “Toxicity LD50” value is above 2000 mg/kg. With `C=Cc1ccccc1` [STYRENE, styrene], the “Toxicity LD50” value is above 2000 mg/kg.
